Data published in patent publication US11452713B2, “Chemotherapeutic methods for treating low-proliferative disseminated tumor cells” (University of Florida Research Foundation, Incorporated, priority 2016, dated 2022).
Entries after “also recorded” stand apart in the source; their conditions may differ.

Legend:
[1] = cited from earlier work
[2] = test system: TWIST1-overexpressing cells; assay: Reversal of TWIST1-dependent growth arrest by p38 inhibition; format: cell-based; details: FIG. 4A
Excerpt: TWIST1 was overexpressed so as to achieve maximal TWIST1 effect, thereby avoiding the confounding problem of added TGFβ1. TWIST1 overexpression alone generated vigorous TGFβ1-independent EMT and led to 2-3 fold lower ERK:p38 signaling ratio (i.e. high p38 activity) compared to the empty vector (FIG. 3D).
(§1) SNAIL1 represses TWIST1 during EMT initiation. TWIST1 maintains EMT by creating a low ERK:p38 signaling ratio (high p38 activity). Thus high SNAIL1 levels in primary tumors would induce EMT while high TWIST1 levels would maintain EMT in metastatic cells and possibly contribute to lpDTCs in metastatic sites (FIG. 1).

BM DTCs [3] = assay: BM DTC count and lpDTC fraction in ErbB2-induced mouse breast cancer model after single-agent treatment; format: in vivo; details: for BM DTC count: FIG. 8A, p<0.05; for fraction of BM lpDTCs (TWIST1+; p-p38+; BrdU- DTCs over total BM DTCs): FIG. 8B
Excerpt: FIGS. 8A-8B show the dormant TWIST1^+; p-p38; BrdU-DTCs resistance to cytotoxic drugs in ErbB2-induced mouse breast cancer model.
Of these TWIST1-positive BM DTCs, nearly 80% (23/29) expressed activated p38 (p-p38) and 70% (20/29) were also growth arrested as measured by a lack of BrdU incorporation (FIG. 7C-D). In contrast, of the TWIST1-negative DTCs, 94% (67/71) lacked activated p38 and 77% (55/71) were also actively proliferating. Therefore TWIST1-positive; p-p38-positive; BrDU-negative cells represent the fraction of true lpDTCs in these models. To confirm that these BM lpDTCs were resistant to cytotoxic agents and that p38 plays a critical role in their growth arrest, these mice were treated with either SB203085 (10 μmol/kg IP BID×7 days) or the cytotoxic drug paclitaxel (Taxol, 10 mg/kg IP once) and measured the number of all BM DTCs and the fraction of lpDTCs (ratio of TWIST1+; p-p38+; BrdU-DTCs over total BM DTCs). […] ErbB2- or PyMT-induced breast tumor mice were untreated or treated with either Taxol alone or a combination of SB203085 plus Taxol with SB203085 starting 72 hrs prior to and ending 72 hrs after each dose of Taxol (FIG. 9). Three 21-day cycles of chemotherapy were given. Total BM DTCs were determined prior to and 1 week after treatment ended.

BM DTCs [4] = assay: p38 inhibitor plus Taxol in PyMT-induced breast tumor mice: total BM DTCs and overall survival; format: in vivo, mouse; details: MMTV-PyMT mice; SB203085 72 hrs prior to until 72 hrs after each Taxol dose, 3 cycles; vs Taxol alone and untreated
Procedure: FIGS. 9A-9B show the p38 inhibition increase the DTCs' sensitivity to cytotoxic chemotherapy. DTCs-bearing PyMT-induced breast tumor mice were either untreated or treated with Taxol alone (10 mg/kg) or with SB203085 (10 μg/kg) followed by Taxol. Taxol was given IP every 3 weeks for 3 cycles. SB203085 was given IP BID starting 72 hours prior to Taxol and continuing until 72 hours after Taxol infusion. Ten mice were included in each reference group. FIGS. 9A and B show the overall survival (A) and total BM DTCs (B) before and after chemo were determined.
Of these TWIST1-positive BM DTCs, nearly 80% (23/29) expressed activated p38 (p-p38) and 70% (20/29) were also growth arrested as measured by a lack of BrdU incorporation (FIG. 7C-D). In contrast, of the TWIST1-negative DTCs, 94% (67/71) lacked activated p38 and 77% (55/71) were also actively proliferating. […] To confirm that these BM lpDTCs were resistant to cytotoxic agents and that p38 plays a critical role in their growth arrest, these mice were treated with either SB203085 (10 μmol/kg IP BID×7 days) or the cytotoxic drug paclitaxel (Taxol, 10 mg/kg IP once) and measured the number of all BM DTCs and the fraction of lpDTCs (ratio of TWIST1+; p-p38+; BrdU-DTCs over total BM DTCs). […] Total BM DTCs were determined prior to and 1 week after treatment ended. […]

TWIST1-positive cells = assay: Sensitivity of TWIST1-positive cells to Taxol with or without SB203580 pretreatment; format: cell-based
Excerpt: as §1

Row | IC50 (TWIST1-positive cells; non-pretreated, FIG. 4B) [nM] | IC50 (TWIST1-positive cells; pretreatment with SB203580, FIG. 4B) [nM] | Structure (SMILES) | tolerability ([1]; 4 dose levels 0.5, 3, 6 and 10 mg PO qday) | most common side effect: skin rash ([1]; phase 2 trial in emphysema) [%] | severe adverse events ([1]; phase 2 trial in emphysema) | TWIST1-dependent growth arrest [2] | increase of number of total BM DTCs compared to non-treated animals (BM DTCs [3]; 10 μmol/kg IP BID x 7 days) [fold] | BM DTC count (BM DTCs [3]) | fraction of BM lpDTCs (TWIST1+; p-p38+; BrdU- DTCs over total BM DTCs) (BM DTCs [3]; listed as SB203085) | overall survival (BM DTCs [4]) | total BM DTCs (BM DTCs [4]) | decrease of total DTC number (BM DTCs [3]; 10 mg/kg IP once) [fold] | fraction of BM lpDTCs (TWIST1+; p-p38+; BrdU- DTCs over total BM DTCs) (BM DTCs [3])
1 | – | – | CNC(=O)c1ccc(C)c(-n2c(C)cc(OCc3ccc(F)cc3F)c(Br)c2=O)c1 [PH797804, 3-(4-(2,4-difluorobenzyloxy)-3-bromo-6-methyl-2-oxopyridin-1(2H)-yl)-N,4-dimethylbenzamide] | well tolerated | ~1 | No significant severe adverse events | – | – | – | – | – | – | – | –
2 | – | – | C[S+]([O-])c1ccc(-c2nc(-c3ccc(F)cc3)c(-c3ccncc3)[nH]2)cc1 (centres unmarked) [SB203580, 4-(4-Fluorophenyl)-2-(4-methylsulfinylphenyl)-5-(4-pyridyl)-1H-imidazole] | – | – | – | reversed TWIST1-dependent growth arrest in a dose dependent manner | > 4 | increases | decreased | increased overall survival | significantly reduced total BM DTCs | – | –
3 | > 40 | 6.1 | CC(=O)O[C@H]1C(=O)[C@@]2(C)[C@H]([C@H](OC(=O)c3ccccc3)[C@]3(O)C[C@H](OC(=O)[C@H](O)[C@@H](NC(=O)c4ccccc4)c4ccccc4)C(C)=C1C3(C)C)[C@]1(OC(C)=O)CO[C@@H]1C[C@@H]2O [Taxol, paclitaxel] | – | – | – | – | – | decreases | – | – | – | ~2.5 | enriches; also recorded: significantly increased
